This is an account of results in US8557816B2, “Aurora kinase modulators and method of use” (Amgen Inc., priority 2007, dated 2013).

For one test, the target named is T1, AuroraB (Homo sapiens, UniProt Q96GD4).
T1 construct: 20 μL of AuroraB FL H is for a final volume of 41 μL; His
Put plainly: AuroraB Homogeneous Time Resolved Fluorescent (HTRF) kinase assay. Format: biochemical. The conditions noted are these: average; read-out: AurB_IC50_IP (uM Avg). The essentials: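 Full-length His-tagged kinase phosphorylates biotinylated Histone H3 (0.1 μM final) with ATP in pH 7.5 HEPES containing MgCl, MnCl, DTT and BSA for about 90 min. EDTA-containing detection mix with SA-APC and Eu-anti-phosphoHistone H3 then equilibrated about 60 min; HTRF read with 320 nm excitation, emissions 615/655 nm.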
A general note: In TR-FRET formats the signal depends on donor and acceptor labels being close together.

For a further test, the target named is T2, AuroraA-TPX2 (Homo sapiens, UniProt O14965).
T2 construct: 20 μL of AuroraA-TPX2 KD GST for a final volume of about 41 μL; GST
T2 sequence (O14965 133-383 limits assumed): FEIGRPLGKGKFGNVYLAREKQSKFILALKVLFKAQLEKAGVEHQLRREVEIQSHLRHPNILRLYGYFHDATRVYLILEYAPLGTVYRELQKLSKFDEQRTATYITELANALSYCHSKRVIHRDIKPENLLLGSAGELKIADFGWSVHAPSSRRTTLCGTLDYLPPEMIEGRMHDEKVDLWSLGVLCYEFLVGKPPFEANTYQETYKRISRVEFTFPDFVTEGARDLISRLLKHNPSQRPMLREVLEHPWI
T2 sequence (Q9ULW0 1-43 partner limits assumed): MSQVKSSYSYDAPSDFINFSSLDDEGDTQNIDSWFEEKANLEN
Nature of the test: AuroraA-TPX2 Homogeneous Time Resolved Fluorescent (HTRF) kinase assay. It is filed as biochemical. To be noted: average; read-out: AurA_IC50_IP (uM Avg). The procedure, abridged:
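HTRF read-out (Eu 615 nm to APC 655 nm) of phosphorylated biotin-PLK, detected with 0.02 nM europium anti-phosphoPLK antibody and 0.0005 mg/mL SA-APC after overnight equilibration.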

T1 sequence (Q96GD4 whole entry): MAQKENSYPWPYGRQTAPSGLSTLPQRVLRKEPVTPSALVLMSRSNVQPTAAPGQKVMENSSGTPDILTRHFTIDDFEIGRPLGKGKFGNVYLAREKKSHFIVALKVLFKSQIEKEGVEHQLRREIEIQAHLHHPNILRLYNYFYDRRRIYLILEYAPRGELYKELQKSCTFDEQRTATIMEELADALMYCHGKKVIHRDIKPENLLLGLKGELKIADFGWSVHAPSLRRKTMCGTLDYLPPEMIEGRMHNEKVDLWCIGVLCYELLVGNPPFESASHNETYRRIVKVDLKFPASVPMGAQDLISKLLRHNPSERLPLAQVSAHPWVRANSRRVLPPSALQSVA

For `COc1cnc2c(Oc3ccc(Nc4nnc(-c5cnn(C)c5)c5ccccc45)cc3)ccnc2c1` [compound 216, N-(4-((7-(methyloxy)-1,5-naphthyridin-4-yl)oxy)phenyl)-4-(1-methyl-1H-pyrazol-4-yl)-1-phthalazinamine], the figures for the IC50 at AuroraB and on AuroraA-TPX2 were 0.006 µM and 0.16 µM, respectively.

For `N#Cc1ccc(-c2nnc(Nc3ccc(Oc4ccnc5cc(C#N)ccc45)cc3)c3ccccc23)cc1` [compound 217, 4-((4-((4-(4-cyanophenyl)-1-phthalazinyl)amino)phenyl)oxy)-7-quinolinecarbonitrile], the values for the IC50 on AuroraB and at AuroraA-TPX2 were 0.016 µM and 0.454 µM, respectively.

Regarding `COc1cnc2c(Oc3ccc(Nc4nnc(-c5ccccc5)c5ccsc45)cc3)ccnc2c1` [compound 218, N-(4-((7-(methyloxy)-1,5-naphthyridin-4-yl)oxy)phenyl)-4-phenylthieno[2,3-d]pyridazin-7-amine], the IC50 at AuroraB came out at 0.003 µM; at AuroraA-TPX2, 0.027 µM.

For the compound `COc1cnc2c(Oc3ccc(Nc4nnc(-c5cccc(Cl)c5)c5ccccc45)cc3)ccnc2c1` [compound 219, 4-(3-chlorophenyl)-N-(4-((7-(methyloxy)-1,5-naphthyridin-4-yl)oxy)phenyl)-1-phthalazinamine], the IC50 is 0.01 µM on AuroraB and 0.051 µM on AuroraA-TPX2.

On to `COc1cnc2c(Oc3ccc(Nc4nnc(-c5ccc(F)cc5)c5ccccc45)cc3)ccnc2c1` [compound 220, 4-(4-fluorophenyl)-N-(4-((7-(methyloxy)-1,5-naphthyridin-4-yl)oxy)phenyl)-1-phthalazinamine], for which the IC50 on AuroraB worked out at 0.004 µM; on AuroraA-TPX2 it was 0.047 µM.

For `CCc1ccc(-c2nnc(Nc3ccc(Oc4ccnc5cc(OC)cnc45)cc3)c3ccccc23)cc1` [compound 221, 4-(4-ethylphenyl)-N-(4-((7-(methyloxy)-1,5-naphthyridin-4-yl)oxy)phenyl)-1-phthalazinamine], the IC50 on AuroraB amounted to 0.007 µM; at AuroraA-TPX2 it was 0.026 µM.

As for `COc1cnc2c(Oc3ccc(Nc4nnc(-c5ccc(Cl)cc5)c5ccccc45)cn3)ccnc2c1` [compound 222, 4-(4-chlorophenyl)-N-(6-((7-(methyloxy)-1,5-naphthyridin-4-yl)oxy)-3-pyridinyl)-1-phthalazinamine], the IC50 amounted to 0.006 µM on AuroraB and 0.047 µM on AuroraA-TPX2.

As to `COc1cnc2c(Oc3ccc(Nc4nnc(-c5ccnn5C)c5ccccc45)cc3)ccnc2c1` [compound 223, N-(4-((7-(methyloxy)-1,5-naphthyridin-4-yl)oxy)phenyl)-4-(1-methyl-1H-pyrazol-5-yl)-1-phthalazinamine], the IC50 came to 0.039 µM at AuroraB and 1.33 µM on AuroraA-TPX2.

On to `COc1cnc2c(Oc3ccc(Nc4nnc(-c5ccc(C)c(Cl)c5)c5ccccc45)cc3)ccnc2c1` [compound 224, 4-(3-chloro-4-methylphenyl)-N-(4-((7-(methyloxy)-1,5-naphthyridin-4-yl)oxy)phenyl)-1-phthalazinamine], for which the IC50 was 0.011 µM on AuroraB and 0.034 µM at AuroraA-TPX2.

As to `COc1cc2nccc(Oc3ccc(Nc4nnc(-c5ccccc5)c5ccccc45)cc3)c2cc1C(N)=O` [compound 225, 7-(methyloxy)-4-((4-((4-phenyl-1-phthalazinyl)amino)phenyl)oxy)-6-quinolinecarboxamide], the IC50 on AuroraB stood at 0.004 µM; at AuroraA-TPX2, 0.023 µM.

`COc1cnc2c(Oc3ccc(Nc4nnc(-c5cccc(C(=O)N(C)C)c5)c5ccccc45)cc3)ccnc2c1` [compound 226, N,N-dimethyl-3-(4-((4-((7-(methyloxy)-1,5-naphthyridin-4-yl)oxy)phenyl)amino)-1-phthalazinyl)benzamide]: the values for the IC50 on AuroraB and on AuroraA-TPX2 were 0.014 µM and 0.187 µM, respectively.

For the compound `COc1cnc2c(Oc3ccc(Nc4nnc(-c5ccc(OC)c(F)c5)c5ccccc45)cc3)ccnc2c1` [compound 227, 4-(3-fluoro-4-(methyloxy)phenyl)-N-(4-((7-(methyloxy)-1,5-naphthyridin-4-yl)oxy)phenyl)-1-phthalazinamine], the IC50 at AuroraB stood at 0.003 µM; on AuroraA-TPX2, 0.051 µM.

`COc1cnc2c(Oc3ccc(Nc4nnc(-c5ccc(Cl)cn5)c5ccccc45)cc3)ccnc2c1` [compound 228, 4-(5-chloro-2-pyridinyl)-N-(4-((7-(methyloxy)-1,5-naphthyridin-4-yl)oxy)phenyl)-1-phthalazinamine]: the values for the IC50 at AuroraB and on AuroraA-TPX2 were 0.004 µM and 0.034 µM, respectively.

For the compound `CCc1ccc(-c2nnc(Nc3ccc(Oc4ccnc5cc(OC)cnc45)cc3)c3ccccc23)s1` [compound 229, 4-(5-ethyl-2-thienyl)-N-(4-((7-(methyloxy)-1,5-naphthyridin-4-yl)oxy)phenyl)-1-phthalazinamine], the IC50 on AuroraB came to 0.007 µM; on AuroraA-TPX2, 0.024 µM.

In the case of `c1ccc(-c2nnc(Nc3ccc(Oc4ccnc5c4NCCC5)cc3)c3ccccc23)cc1` [compound 230, 4-phenyl-N-(4-(5,6,7,8-tetrahydro-1,5-naphthyridin-4-yloxy)phenyl)-1-phthalazinamine], the IC50 came out at 0.031 µM on AuroraB and 5 µM at AuroraA-TPX2.

In the case of `N#Cc1ccc2c(Oc3ccc(Nc4nnc(-c5ccc(Cl)c(C#N)c5)c5ccccc45)cc3)ccnc2c1` [compound 231, 4-((4-((4-(4-chloro-3-cyanophenyl)-1-phthalazinyl)amino)phenyl)oxy)-7-quinolinecarbonitrile], the IC50 on AuroraB turned out to be 0.032 µM; on AuroraA-TPX2 it was 0.379 µM.

In the case of `COc1cnc2c(Sc3ccc(Nc4nnc(-c5ccc(Cl)cc5)c5ccccc45)cc3)ccnc2c1` [compound 232, 4-(4-chlorophenyl)-N-(4-((7-(methyloxy)-1,5-naphthyridin-4-yl)thio)phenyl)-1-phthalazinamine], the IC50 turned out to be 0.015 µM at AuroraB and 0.036 µM at AuroraA-TPX2.

As for `COc1cnc2c(Oc3ccc(Nc4nnc(-c5ccc(Cl)cc5C)c5ccccc45)cc3)ccnc2c1` [compound 233, 4-(4-chloro-2-methylphenyl)-N-(4-((7-(methyloxy)-1,5-naphthyridin-4-yl)oxy)phenyl)-1-phthalazinamine], the IC50 came to 0.021 µM on AuroraB and 0.845 µM on AuroraA-TPX2.

With `COc1cnc2c(Oc3ccc(Nc4nnc(-c5ccccc5)cc4C(C)C)cc3)ccnc2c1` [compound 234, 4-(1-methylethyl)-N-(4-((7-(methyloxy)-1,5-naphthyridin-4-yl)oxy)phenyl)-6-phenyl-3-pyridazinamine], the IC50 at AuroraB was determined as 0.006 µM; on AuroraA-TPX2, 0.173 µM.

As for `COc1cnc2c(Oc3ccc(Nc4nnc(-c5ccc(Cl)nc5)c5ccccc45)cc3)ccnc2c1` [compound 235, 4-(6-chloro-3-pyridinyl)-N-(4-((7-(methyloxy)-1,5-naphthyridin-4-yl)oxy)phenyl)-1-phthalazinamine], the IC50 was 0.003 µM at AuroraB and 0.123 µM at AuroraA-TPX2.

Take `COc1cnc2c(Oc3ccc(Nc4nnc(-c5ccc(Cl)c(C)c5)c5ccccc45)cc3)ccnc2c1` [compound 236, 4-(4-chloro-3-methylphenyl)-N-(4-((7-(methyloxy)-1,5-naphthyridin-4-yl)oxy)phenyl)-1-phthalazinamine]: the IC50 at AuroraB was 0.008 µM; at AuroraA-TPX2 it was 0.027 µM.

Turning to `COc1cnc2c(Oc3ccc(Nc4nnc(-c5ccc(SC)cc5)c5ccccc45)cc3)ccnc2c1` [compound 237, N-(4-((7-(methyloxy)-1,5-naphthyridin-4-yl)oxy)phenyl)-4-(4-(methylthio)phenyl)-1-phthalazinamine], the results for the IC50 on AuroraB and at AuroraA-TPX2 were 0.005 µM and 0.038 µM, respectively.
